# Patent US5369111A, “Modulator agent and use thereof” (University of Vermont, priority 1992, dated 1994)
# Columns and labels:
# S180 cells, parental = assay: Modulation of intrinsic drug resistance, parental S180; assay type: cell-based, murine; conditions: S180; IC50 drug alone / IC50 drug + modulator, at nontoxic concentration limit
# Experimental: (§1) Mid-exponential cultures were used for all assays. The RCC-2 and RCC-5 cell lines were seeded into 24-well plates at 2×10^4 cells/well and allowed to attach to the substratum for 16-18 h prior to treatment. The S180 cell lines were seeded into culture tubes at 1×10^5 cells/ml and treated immediately. Cytotoxicity was determined by quantitation of population growth after 72 h incubation by electronic particle counter (Coulter Electronics, Hialeah, Fla.). The human tumor cell lines were used in a clonogenic assay for cytotoxicity. Cells were seeded at 300 cells/dish, incubated overnight and then treated. Colonies were scored 7-11 days later. In all assays of analog modulation of drug sensitivity, the analog was added minutes prior to the addition of cytotoxic drug.
# The ability of the compounds to modulate drug sensitivity in parental cells was studied over a range of concentrations of each compound, from 10^-6 M to the non-toxic (IC10-20) or solubility limit. […] From such experiments, we determined a sensitivity index derived from the IC50 of the drug without modulator treatment divided by the drug IC50 at each concentration of modulator.
# When the sensitivity index for each drug, VBL, VCR and ADM is plotted versus the modulator concentration (FIG. 4), we can compare the relative potencies of the compounds as modulators of drug toxicity to the parental S180 cells.
# (§2) *calculated as the IC50 of the drug alone divided by the IC50 o
# (§3) the [drug modulator] combination. Data are presented from tretments with
# FIG. 4 represents the potency of the vinca alkaloid compounds as modulators of drug sensitivity in S180 cells. The enhancement of sensitivity was calculated as the sensitivity index=IC50 of the drug alone divided by the IC50 of the drug+modulator. The IC50s for ADM (o) VBL (Δ), or VCR (.quadrature.) were determined over a concentration range of each modulator from data such as those depicted in FIG. 3. The values presented were averaged from duplicate samples of two separate experiments, S.D. <15% of the mean.
# S180/A10 cells = assay: Modulator potency in MDR cells: reversal of acquired resistance, S180/A10; assay type: cell-based, murine; conditions: for reversal of high level ADM resistance: 90-fold resistance, A10; for Modulator potency in MDR cells (minimal concentration restoring parental drug sensitivity), VBL: drug resistance level 10; for Modulator potency in MDR cells (minimal concentration restoring parental drug sensitivity), VCR: drug resistance level 17
# Experimental: as §1
# (§4) To evaluate the ability of vindoline and the two diastereoisomeric VBL analogs to modulate the MDR phenotype (acquired resistance) of the A3 and A10 cell stains, we determined the concentration of compound required to restore drug sensitivities to parental levels. This was done by exposing the MDR cell line to a concentration range of modulator in the presence VBL, VCR and ADM at the respective IC70s of the parental cell line. The cytotoxicity curves for A3 and A10 cells, shown in FIG. 5, are distinctive among the three vinca alkaloids examined. In each cell line, there was a minimum concentration of modulator that elicited 70% growth inhibition for each drug - i.e. the reversing concentration.
# (§5) *The minimal concentration of modulator required to restore the drug
# (§6) sensitivity of S180/MDR cell strains to that of parental S180 cells. Data
# (§7) are the averages of 2-3 separate experiments, S.D. ≤20%.
# [1] = test system: S180 MDR cell strains A3 and A10; assay: Modulation of acquired drug resistance in the S180 MDR cell strains A3 and A10; assay type: cell-based, murine; conditions: VBL, VCR and ADM
# Experimental: as §1, §4
# FIG. 5 represents the modulation of multidrug resistance in the MDR cell strains by the vinca alkaloids. Vindoline (A), vincovaline (B), or the analog C-20'-deoxy vincovaline (C) was added, at various concentrations, to A3 (closed symbols) or A10 (opened symbols) cell cultures containing the parental IC70 of each drug: 2.0×10^-7 M. ADM (circles: 1.5×10^-8 M VBL (triangles); and 4.5×10^-8 M; VCR (squares). Population growth was determined 72 hours later.
# FIG. 6 represents the relationship between cellular drug resistance level and the minimal modulator concentration required for complete reversal of drug resistance. The drugs examined were ADM (o), VBL (Δ), and VCR (.quadrature.). The amount (concentration) of modulator, necessary to reverse each level of drug resistance contained in the A3 and A10 cell lines, was determined from data such as those of FIG. 5. The values presented were averaged from duplicate samples of two separate experiments, S.D.<15% of the mean. The arrows denote the non-toxic concentration limit for the modulator; in the case of Vincovaline this value is dependent on the MDR cell strain, 2×10^-5 M, A3; 5×10^-5 M. A10.
# FIG. 11 represents the modulation of multidrug resistance in the S180 MDR cell strains A3 and A10. The cellular drug resistance level is plotted against the minimal concentration of C-20'-deoxy deethyl vincovaline required for the complete reversal of drug resistance to ADM (o), VBL (Δ), and VCR (.quadrature.). In the case of high level ADM resistance […], the sensitivity of the cells was restored to 80% of the parental value. The arrow denotes the non-toxic concentration limit of the analog.
# RCC-2 cells = assay: Modulation of intrinsic drug resistance, RCC-2; assay type: cell-based, rat; conditions: IC50 drug alone / IC50 drug + modulator, at nontoxic concentration limit
# Experimental: as §1, §2, §3
# (§8) the nontoxic concentration limit of each analog as noted.
# [2] = test system: S180/MDR cell system and rat colon cancer cell lines; assay: Cytotoxicity in the S180/MDR cell system and the rat colon cancer cell lines; assay type: cell-based, mouse; conditions: S-180, 72 h
# From the text: (§9) The analogs were examined in a panel of tumor cell lines of both intrinsic and acquired drug resistance, as described in Table 1. The rat colon adenocarcinoma cell lines RCC-2 and RCC-5 (ref. 13) were maintained in Ham's F12 medium supplemented with 5% heat-inactivated, fetal bovine serum (Sterile Systems. Hyclone, Logan, Utah). The two rat colon cancer cell lines differ in their degree of cellular differentiation; whereas the RCC-2 cell line is undifferentiated, the RCC-5 cell line is highly mucinous. The human epidermoid carcinoma cell line KB-3-1 and its MDR variant KB-Vl, selected by VBL treatment (ref. 14; courtesy of M. Gottesman. National Cancer Institute), was maintained in DMEM medium supplemented with 10%, heat-inactivated, fetal bovine serum. The murine sarcoma cell line […] and its MDR strains A3 and A10 selected by ADM treatment (ref. 15; courtesy of T. Tritton, Dept. Pharmacology, Univ. Vermont). were maintained in DMEM medium supplemented with 10% heat-inactivated, horse serum (Hazelton Biolog. Lenexa, Kans.). Stock cultures were subcultured twice weekly upon reaching the late exponential phase of population growth: population doubling times were 18-24 h. Antibiotics were not used in stock or experimental cultures. The MDR cell strains were grown in drug-free media for 48 h prior to experimental use.
# as §1
# [3] = test system: parental cell lines (S180, RCC-2, RCC-5); assay: Modulation of intrinsic resistance in the parental cell lines (S180, RCC-2, RCC-5); assay type: cell-based, mouse, rat
# Experimental: as §1, §2, §3, §8
# RCC-5 cells = assay: Modulation of intrinsic drug resistance, RCC-5; assay type: cell-based, rat; conditions: RCC-5; IC50 drug alone / IC50 drug + modulator, at nontoxic concentration limit
# Experimental: as §1, §2, §3, §8
# FIG. 9 represents the modulation of VCR sensitivity in the RCC-12 (A) and RCC-5 (B) cell lines by the analog C-20'-deoxy deethyl vincovaline. Population growth was determined after 72 hours incubation in the absence (o), or presence of 10 μM (o), 20 μM (Δ), or 50 μM of analog. Data presented are from a typical experiment.
# S180/A3 cells = assay: Modulator potency in MDR cells: reversal of acquired resistance, S180/A3; assay type: cell-based, murine; conditions: for Modulator potency in MDR cells (minimal concentration restoring parental drug sensitivity), ADM: drug resistance level 15; for Modulator potency in MDR cells (minimal concentration restoring parental drug sensitivity), VBL: drug resistance level 3; for Modulator potency in MDR cells (minimal concentration restoring parental drug sensitivity), VCR: drug resistance level 7
# Experimental: as §1, §4, §5, §6, §7
# [4] = Inhibition of population growth (cytotoxicity), rat colon adenocarcinoma RCC-2; assay type: cell-based; conditions: rat, rcc-2 cells; RCC-2; Table III; read-out: Modulator concentration (nontoxic concentration limit of the analog)
# From the text: as §9, §1
# [5] = Inhibition of population growth (cytotoxicity), S180 sarcoma, parental; assay type: cell-based, mouse; conditions: mouse, s180 cells; S180; Table III; read-out: Modulator concentration (nontoxic concentration limit of the analog)
# From the text: as §9, §1
# [6] = Inhibition of population growth (cytotoxicity), rat colon adenocarcinoma RCC-5; assay type: cell-based; conditions: rat, rcc-5 cells; RCC-5; Table III; read-out: Modulator concentration (nontoxic concentration limit of the analog)
# From the text: as §9, §1
Structure (SMILES),"Maximum sensitization of parental cells by modulator, drug ADM (S180 cells, parental)","Maximum sensitization of parental cells by modulator, drug VBL (S180 cells, parental)","Maximum sensitization of parental cells by modulator, drug VCR (S180 cells, parental)",reversal of high level ADM resistance (S180/A10 cells; ADM),"Modulator potency in MDR cells (minimal concentration restoring parental drug sensitivity), VBL (S180/A10 cells)","Modulator potency in MDR cells (minimal concentration restoring parental drug sensitivity), VCR (S180/A10 cells)",range of resistance levels over which parental sensitivity was restored [1],"Maximum sensitization of parental cells by modulator, drug ADM (RCC-2 cells)","Maximum sensitization of parental cells by modulator, drug VBL (RCC-2 cells)","Maximum sensitization of parental cells by modulator, drug VCR (RCC-2 cells)",IC50 [2],modulation of intrinsic cellular resistance to ADM and/or VCR (in words) [3],effect on the sensitivity of parental cells to VBL (in words) [3],enhancement of VCR cytotoxicity in the parental cell lines [3],"Maximum sensitization of parental cells by modulator, drug ADM (RCC-5 cells)","Maximum sensitization of parental cells by modulator, drug VBL (RCC-5 cells)","Maximum sensitization of parental cells by modulator, drug VCR (RCC-5 cells)","Modulator potency in MDR cells (minimal concentration restoring parental drug sensitivity), ADM (S180/A3 cells)","Modulator potency in MDR cells (minimal concentration restoring parental drug sensitivity), VBL (S180/A3 cells)","Modulator potency in MDR cells (minimal concentration restoring parental drug sensitivity), VCR (S180/A3 cells)",further results
"CCC1CC2CN(CCc3c([nH]c4ccccc34)C(C(=O)OC)(c3cc4c(cc3OC)N(C)C3C(O)(C(=O)OC)C(OC(C)=O)C5(CC)C=CCN6CCC43C65)C2)C1 (stereo not drawn) [analog n° 353, C-14'-epi-C-20'-deoxy-VBL]",4.0,1.4,7.0,80%,10.0 µM,13.0 µM,3-90 fold,2.1,1.8,7.3,≥ 5 µM,modulated intrinsic cellular resistance to ADM and/or VCR,less effect on the sensitivity of parental cells to VBL,7-18 fold,6.4,1.6,3.5,35. μM,4.0 µM,4.0 µM,"Modulator potency in MDR cells, ADM (value marked #) (S180/A10 cells; ADM, drug resistance level 90, #: significant (>50%) reversal at the maximum nontoxic concentration): 40. μM; MNTC at 72 h [4]: 10 µM; MNTC at 72 h [5]: 40 µM; MNTC at 72 h [6]: 10 µM"
"CC[C@H]1C[C@@H]2CN(CCc3c([nH]c4ccccc34)[C@](C(=O)OC)(c3cc4c(cc3OC)N(C)[C@H]3[C@@](O)(C(=O)OC)[C@H](OC(C)=O)[C@]5(CC)C=CCN6CC[C@]43[C@@H]65)C2)C1 [analog n° 354, C-20'-deoxy-C-16', 20' epi VBL]",5.0,1.0,3.0,80%,10.0 µM,20.0 µM,3-90 fold,1.9,1.2,4.0,≥ 5 µM,modulated intrinsic cellular resistance to ADM and/or VCR,less effect on the sensitivity of parental cells to VBL,7-18 fold,5.3,1.9,18.0,25. μM,1.7 µM,10.0 µM,"Modulator potency in MDR cells (minimal concentration restoring parental drug sensitivity), ADM (S180/A10 cells; ADM, drug resistance level 90): 40. μM; MNTC at 72 h [4]: 5 µM; MNTC at 72 h [5]: 20 µM; MNTC at 72 h [6]: 5 µM"
